We go through one molecule from patent US20240307338A1, “USE OF PHARMACEUTICAL COMPOSITION CONTAINING CHLOROGENIC ACID IN PREPARATION OF MEDICAMENT FOR TREATING PATHOLOGIC JAUNDICE” (SICHUAN JIUZHANG BIOLOGICAL SCIENCE AND TECHNOLOGY CO., LTD., priority 2021, published 2024).

Format in all cases: in vivo, SD rats
Assay [1] concerns rat model of hemolytic jaundice (acetylphenylhydrazine-induced). Nature of the assay: Detection of glutathione (GSH) by ELISA in rats with APH-induced hemolytic jaundice. The note with it: after 6 days of treatment, in words, compared with the model control group (data not shown). As to the method:
Clean adult male SD rats, weighing 200 g-250 g. The following experiment was carried out mainly by referring to the method described in CN104739818A. In short, in the example, acetylphenylhydrazine (APH) was used as a modeling drug to construct a rat model of hemolytic jaundice, which was also a commonly used model for studying neonatal hemolytic jaundice at home and abroad. The most prominent feature of hemolytic jaundice was the collapse of the patient's red blood cells, causing hemolysis. […] At the same time, due to the rupture of red blood cells and the release of bilirubin, liver function was damaged. The mechanism and symptoms simulated by APH were similar to those of hemolytic jaundice. From 60 healthy SD rats with required body weight, 10 rats were randomly selected as the normal control group, and the remaining 50 rats were intraperitoneally injected with acetylphenylhydrazine (APH) at a dose of 150 mg/kg for 3 consecutive days, to construct the animal model of hemolytic jaundice induced by oxidation of red blood cells. […] In order to explore the mechanism for the possible therapeutic effect of CGA, the GSH level of rats in each group was detected in this example. […]
In general terms: An ELISA detects its analyte on a solid surface through an enzyme-linked reagent.

The test system is the same in assay [2]. Nature of the assay: Determination of total, direct and indirect bilirubin in rats with APH-induced hemolytic jaundice. As to the method:
(§1) Clean adult male SD rats, weighing 200 g-250 g. The following experiment was carried out mainly by referring to the method described in CN104739818A. In short, in the example, acetylphenylhydrazine (APH) was used as a modeling drug to construct a rat model of hemolytic jaundice, which was also a commonly used model for studying neonatal hemolytic jaundice at home and abroad. The most prominent feature of hemolytic jaundice was the collapse of the patient's red blood cells, causing hemolysis. […] At the same time, due to the rupture of red blood cells and the release of bilirubin, liver function was damaged. The mechanism and symptoms simulated by APH were similar to those of hemolytic jaundice. From 60 healthy SD rats with required body weight, 10 rats were randomly selected as the normal control group, and the remaining 50 rats were intraperitoneally injected with acetylphenylhydrazine (APH) at a dose of 150 mg/kg for 3 consecutive days, to construct the animal model of hemolytic jaundice induced by oxidation of red blood cells. […] 50 rats successfully modeled were randomly divided into 5 groups, 10 rats for each group, and the groups were respectively named as: model control group (n=10), CGA group (n=10), bifidobacteria+HMO group (n=10), CGA+bifidobacteria+HMO low-dose group (n=10), CGA+bifidobacteria+HMO high-dose group (n=10), together with the normal control group (n=10), a total of 6 experimental groups, including 60 rats. In the experiment, rats in each group were administered by gavage, while the blank group and the model group were given the solvent physiological saline by gavage. The administration time is 6 days. The composition and dosage of therapeutic drugs for each group were as follows: • (1) CGA group: CGA 60 mg/kg/day, administered by gavage with physiological saline as solvent. • (2) bifidobacteria+HMO group: Bifidobacterium brevis M16-V (6 mg/kg/day), lacto-N-neotetraose (3 mg/kg/day), and 6′-sialyllactose (3 mg/kg/day). The mixture of the above components was prepared according to the weight ratio, and using physiological saline as the solvent, the solution of the mixture was administered by gavage. • (3) CGA+bifidobacteria+HMO low-dose group: CGA (60 mg/kg/day), Bifidobacterium brevis M16-V (6 mg/kg/day), lacto-N-neotetraose (3 mg/kg/day), and 6′-sialyllactose (3 mg/kg/day). […] In this example, the activity of ALT (alanine aminotransferase) and AST (aspartate aminotransferase) was determined by rate method, while α-GST was detected using α-GST (α-glutathione s-transferase) detection kit; • (2) The blood sample stored in step (1) was taken out, and then bilirubin and direct bilirubin were detected by using the total bilirubin detection kit and the direct bilirubin detection kit.

For assay [3] the test system is unchanged. The experiment in a line: Activity assay of α-GST, ALT and AST in serum of rats with APH-induced hemolytic jaundice. As to the method: as §1
[4] abbreviates: after 6 days of gavage, APH model rats, mean ± SD, n=10.
[5] abbreviates: after 6 days of treatment, in words, compared with the model control group.
Setting [6] is: serum, after 6 days of gavage, APH model rats, mean ± SD, n=10.

For the molecule `O=C(/C=C/c1ccc(O)c(O)c1)O[C@@H]1C[C@](O)(C(=O)O)C[C@@H](O)[C@H]1O` [CGA, 3-O-caffeoylquinic acid], the “content of GSH in serum” value in assay [1] was “increased significantly”. In assay [2] (setting [4]), this molecule displayed a Direct bilirubin of 1.86 ± 0.85 µmol/L, an Indirect bilirubin of 1.51 µmol/L and a Total bilirubin of 3.37 ± 0.93 µmol/L. Further, the “levels of direct bilirubin, indirect bilirubin and total bilirubin” value in assay [2] (setting [5]) was “significantly decreased”. Moreover, the “levels of α-GST, ALT, and AST in serum” value in assay [3] (setting [5]) is “significantly decreased”. In assay [3] (setting [6]), the ALT was 26.5 ± 3.8 U/L, the AST came out at 29.8 ± 5.1 U/L and the α-GST amounted to 20.9 ± 4.2.
